# According to patent publication US5849736A, “Isoxazoline and isoxazole fibrinogen receptor antagonists” (The DuPont Merck Pharmaceutical Company, priority 1995, dated 1998):
# Structures can show the parent of a compound that is named as a salt.
# Tested on: platelet aggregation in human platelet rich plasma (PRP)
# Assay: Platelet Aggregation Assay (platelet rich plasma, with or without esterase pretreatment)
# Format: cell-based
# Conditions: Platelet, preincubated with 100 IU/mL porcine liver esterase 2 hours at 37° C., 100 μM ADP, read-out: Platelet Aggregation Assay IC50 (with esterase)
# Procedure: Venous blood was obtained from the arm of a healthy human donor who was drug-free and aspirin-free for at least two weeks prior to blood collection. Blood was collected into 10 mL citrated Vacutainer tubes. The blood was centrifuged for 15 minutes at 150×g at room temperature, and platelet-rich plasma (PRP) was removed. The remaining blood was centrifuged for 15 minutes at 1500×g at room temperature, and platelet-poor plasma (PPP) was removed. Samples were assayed on a aggregometer (PAP-4 Platelet Aggregation Profiler), using PPP as the blank (100% transmittance). 200 μL of PRP was added to each micro test tube, and transmittance was set to 0%. 20 μL of various agonists (ADP, collagen, arachidonate, epinephrine, thrombin) were added to each tube, and the aggregation profiles were plotted (% transmittance versus time). The results are expressed as % inhibition of agonist-induced platelet aggregation. For the IC50 evaluation, the test compounds were added at various concentrations prior to the activation of the platelets.
# Ester prodrugs were preincubated (10^-3 M F.C.) with 100 IU/mL Porcine liver esterase (Sigma Chemical Co., St. Louis, Mo., #E-3128) for 2 hours at 37° C. Aliquots are then diluted in 0.1M Tris, pH 7.4, to the desired concentrations. Aliquots of 20 μl of the esterase pretreated prodrugs are added to 200 μl of human platelet rich plasma. Samples were placed in platelet profiler (aggregometer) for 8 minutes at 37° C., followed by the addition of 100 μM Adenosine Diphosphate, (Sigma Chemical Co., St. Louis, Mo., #A-6521), to induce platelet aggregation. Platelet aggregation was allowed to proceed for 5 minutes. Percent inhibition is calculated using percent aggregation in the presence of the test compound divided by percent aggregation of control, times 100. This value is subtracted from 100, yielding percent inhibition. Calculation of IC50 is performed on a Texas Instruments TI59 with an IC50 program.
# Table A below sets forth the antiplatelet activity of representative compounds of the present invention. The indicated compounds were tested for their ability to inhibit platelet aggregation (using platelet rich plasma (PRP)). The IC50 value (the concentration of antagonist which inhibits platelet aggregation by 50% relative to a control lacking the antagonist) is shown. In Table 5 the IC50 values are expressed as: +++=IC50 of <10 μM; ++=IC50 of 10-50 μM; +=IC50 of 50-100 μM (μM=micromolar).
row,SMILES,IC50 [µM]
1,CCS(=O)(=O)NC(CNC(=O)CC1CC(c2ccc(C(=N)N)cc2)=NO1)C(=O)OC (centres unmarked) [Example 324],< 10
2,COC(=O)C(CNC(=O)CC1CC(c2ccc(C(=N)N)cc2)=NO1)NS(=O)(=O)c1ccccc1 (centres unmarked) [Example 326],< 10
3,COC(=O)[C@H](CNC(=O)CC1CC(c2ccc(C(=N)N)cc2)=NO1)NS(=O)(=O)c1ccc(C)cc1 (some centres unmarked) [Example 327],< 10
4,"CCCC[C@H](CC(=O)OC)NC(=O)CC1CC(c2ccc(C(=N)N)cc2)=NO1 (stereo partly drawn) [Example 344, Methyl 3(R)-{5(R,S)-N-[3-(4-Amidinophenyl)isoxazolin-5-ylacetyl]amino}heptanoate]",< 10
5,CCCCC(CC(=O)OCC)NC(=O)CC1CC(c2ccc(C(=N)N)cc2)=NO1 (centres unmarked) [Example 345],< 10
6,"CCOC(=O)C[C@@H](CC(C)C)NC(=O)CC1CC(c2ccc(C(=N)N)cc2)=NO1 (stereo partly drawn) [Example 348, Ethyl 3(R)-{5(R,S)-N-[3-(4-amidinophenyl)isoxazolin-5-ylacetyl]amino}-5-methylhexanoate . trifluoroacetic acid salt]",< 10
7,COC(=O)CC1CCCCN1C(=O)CC1CC(c2ccc(C(=N)N)cc2)=NO1 (centres unmarked) [Example 394],< 10
8,CCOC(=O)CC1CCCCN1C(=O)CC1CC(c2ccc(C(=N)N)cc2)=NO1 (centres unmarked) [Example 413],< 10
9,CCOC(=O)CC1CCCCCN1C(=O)CC1CC(c2ccc(C(=N)N)cc2)=NO1 (centres unmarked) [Example 415],< 10
10,"N=C(N)c1ccc(C2=NOC(CC(=O)N[C@@H](CC(=O)O)C(=O)NCCc3ccccc3)C2)cc1 (stereo partly drawn) [Example 435, (S)-N^α -[3-(4-Amidinophenyl)-isoxazolin-5-(R,S)-ylacetyl]-α-aspart-N-(2-phenylethyl)amide, trifluoroacetic acid salt]",< 10
11,CCOC(=O)CC(NC(=O)CC1CC(c2ccc(C(=N)N)cc2)=NO1)C(=O)OCC (centres unmarked) [Example 439],< 10
12,COC(=O)C(CNC(=O)CC1CC(c2ccc(C(N)=NC(=O)OC(C)(C)C)cc2)=NO1)NC(=O)OCc1ccccc1 (centres unmarked) [Example 440],< 10
13,COC(=O)CC(CCCc1ccccc1)NC(=O)CC1CC(c2ccc(C(=N)N)cc2)=NO1 (centres unmarked) [Example 446],< 10
14,COC(=O)CC(CCc1ccncc1)NC(=O)CC1CC(c2ccc(C(=N)N)cc2)=NO1 (centres unmarked) [Example 450],< 10
15,CCCCOC(=O)NC(CNC(=O)CC1CC(CCC2CCNCC2)=NO1)C(=O)OC (centres unmarked) [Example 451],< 10
16,COC(=O)CC(NC(=O)CC1CC(c2ccc(C(=N)N)cc2)=NO1)C(=O)NCCc1ccccc1 (centres unmarked) [Example 452],< 10
17,COC(=O)CC(NC(=O)CC1CC(c2ccc(C(N)=NC(=O)OC(C)(C)C)cc2)=NO1)C(=O)N1CCN(Cc2ccccc2)CC1 (centres unmarked) [Example 453],< 10
18,COC(=O)CC(NC(=O)CC1CC(c2ccc(C(=N)N)cc2)=NO1)C(=O)N(C)CCc1ccccc1 (centres unmarked) [Example 454],< 10
19,COC(=O)CC(NC(=O)CC1CC(c2ccc(C(=N)N)cc2)=NO1)C(=O)N1CCN(Cc2ccccc2)CC1 (centres unmarked) [Example 455],< 10
20,COC(=O)CC(C#C[Si](C)(C)C)NC(=O)CC1CC(c2ccc(C(=N)N)cc2)=NO1 (centres unmarked) [Example 457],< 10
21,CCOC(=O)CC(NC(=O)CC1CC(c2ccc(C(=N)N)cc2)=NO1)C(=O)NCC12CC3CC(CC(C3)C1)C2 (centres unmarked) [Example 462],< 10
22,COC(=O)CC(NC(=O)CC1CC(c2ccc(C(=N)N)cc2)=NO1)C(=O)N1CCCc2ccccc21 (centres unmarked) [Example 464],< 10
23,COC(=O)CC(NC(=O)CC1CC(c2ccc(C(=N)N)cc2)=NO1)C(=O)N1CCc2ccccc2C1 (centres unmarked) [Example 465],< 10
24,COC(=O)CC(NC(=O)CC1CC(c2ccc(C(=N)N)cc2)=NO1)C(=O)NC12CC3CC(CC(C3)C1)C2 (centres unmarked) [Example 466],< 10
25,COC(=O)CC(NC(=O)CC1CC(c2ccc(C(=N)N)cc2)=NO1)C(=O)NC1C2CC3CC(C2)CC1C3 (centres unmarked) [Example 467],< 10

row,SMILES,IC50 [µM]
1,COC(=O)CC(NC(=O)CC1CC(c2ccc(C(=N)N)cc2)=NO1)C(=O)N1CCSCC1 (centres unmarked) [Example 468],< 10
2,COC(=O)CC(NC(=O)CC1CC(c2ccc(C(=N)N)cc2)=NO1)C(=O)N1CCSC1 (centres unmarked) [Example 469],< 10
3,CCCCOc1ccc(S(=O)(=O)NC(CNC(=O)CC2CC(c3ccc(C(=N)N)cc3)=NO2)C(=O)OC)cc1 (centres unmarked) [Example 471],< 10
4,COC(=O)C(CNC(=O)CC1CC(c2ccc(C(=N)N)cc2)=NO1)NS(=O)(=O)c1cccs1 (centres unmarked) [Example 472],< 10
5,"COC(=O)[C@H](CNC(=O)CC1CC(c2ccc(C(=N)N)cc2)=NO1)NS(=O)(=O)c1cccc(C)c1 (stereo partly drawn) [Example 473A, Methyl N^2-3-methylphenylsulfonyl-N^3-[3-(4-amidinophenyl)isoxazolin-5R-ylacetyl]-S-2,3-diaminopropionate trifluoroacetic acid salt]",< 10
6,COC(=O)C(CNC(=O)CC1CC(c2ccc(C(=N)N)cc2)=NO1)NS(=O)(=O)c1cccc(C)c1 (centres unmarked) [Example 473],< 10
7,COC(=O)C(CNC(=O)CC1CC(c2ccc(C(=N)N)cc2)=NO1)NS(=O)(=O)c1ccc(I)cc1 (centres unmarked) [Example 474],< 10
8,COC(=O)C(CNC(=O)CC1CC(c2ccc(C(=N)N)cc2)=NO1)NS(=O)(=O)c1cccc(C(F)(F)F)c1 (centres unmarked) [Example 475],< 10
9,COC(=O)C(CNC(=O)CC1CC(c2ccc(C(=N)N)cc2)=NO1)NS(=O)(=O)c1cccc(Cl)c1 (centres unmarked) [Example 476],< 10
10,COC(=O)c1ccccc1S(=O)(=O)NC(CNC(=O)CC1CC(c2ccc(C(=N)N)cc2)=NO1)C(=O)OC (centres unmarked) [Example 477],< 10
11,COC(=O)C(CNC(=O)CC1CC(c2ccc(C(=N)N)cc2)=NO1)NS(=O)(=O)c1c(C)cc(C)cc1C (centres unmarked) [Example 478],< 10
12,COC(=O)C(CNC(=O)CC1CC(c2ccc(C(=N)N)cc2)=NO1)NS(=O)(=O)c1ccccc1Cl (centres unmarked) [Example 479],< 10
13,COC(=O)C(CNC(=O)CC1CC(c2ccc(C(=N)N)cc2)=NO1)NS(=O)(=O)c1ccccc1C(F)(F)F (centres unmarked) [Example 480],< 10
14,COC(=O)C(CNC(=O)CC1CC(c2ccc(C(=N)N)cc2)=NO1)NS(=O)(=O)c1ccc(C(F)(F)F)cc1 (centres unmarked) [Example 481],< 10
15,COC(=O)C(CNC(=O)CC1CC(c2ccc(C(=N)N)cc2)=NO1)NS(=O)(=O)c1ccccc1F (centres unmarked) [Example 482],< 10
16,COC(=O)C(CNC(=O)CC1CC(c2ccc(C(=N)N)cc2)=NO1)NS(=O)(=O)c1ccc(F)cc1 (centres unmarked) [Example 483],< 10
17,COC(=O)C(CNC(=O)CC1CC(c2ccc(C(=N)N)cc2)=NO1)NS(=O)(=O)c1ccc(OC)cc1 (centres unmarked) [Example 484],< 10
18,COC(=O)C(CNC(=O)CC1CC(c2ccc(C(=N)N)cc2)=NO1)NS(=O)(=O)c1c(C)c(C)cc(C)c1C (centres unmarked) [Example 485],< 10
19,COC(=O)C(CNC(=O)CC1CC(c2ccc(C(=N)N)cc2)=NO1)NS(=O)(=O)c1ccc(C#N)cc1 (centres unmarked) [Example 486],< 10
20,COC(=O)C(CNC(=O)CC1CC(c2ccc(C(=N)N)cc2)=NO1)NS(=O)(=O)c1ccc(Cl)cc1 (centres unmarked) [Example 487],< 10
21,CCc1ccc(S(=O)(=O)NC(CNC(=O)CC2CC(c3ccc(C(=N)N)cc3)=NO2)C(=O)OC)cc1 (centres unmarked) [Example 488],< 10
22,CCCc1ccc(S(=O)(=O)NC(CNC(=O)CC2CC(c3ccc(C(=N)N)cc3)=NO2)C(=O)OC)cc1 (centres unmarked) [Example 489],< 10
23,CCCS(=O)(=O)NC(CNC(=O)CC1CC(c2ccc(C(=N)N)cc2)=NO1)C(=O)OC (centres unmarked) [Example 490],< 10
24,COC(=O)C(CNC(=O)CC1CC(c2ccc(C(=N)N)cc2)=NO1)NS(=O)(=O)CCc1ccccc1 (centres unmarked) [Example 491],< 10

# Same assay, conditions: Platelet, without esterase, read-out: Platelet Aggregation Assay IC50 (without esterase)
row,SMILES,IC50 [µM]
1,O=C(O)CCCN1C(=O)CC2(CC(CCCC3CCNCC3)=NO2)C1=O (centres unmarked) [Example 373],10 to 50
2,"N=C(N)c1ccc(C2=NOC(CC(=O)N3CCCCC3CC(=O)O)C2)cc1 [Example 375, 2-(R,S)-2-Carboxymethyl-1-{5-(R,S)-N-[3-(4-amidinophenyl)isoxazolin-5-ylacetyl]}piperidine]",< 10
3,N=C(N)c1ccc(C2=NOC(CC(=O)NC(CC(=O)O)C(=O)NCC34CC5CC(CC(C5)C3)C4)C2)cc1 (centres unmarked) [Example 463],< 10

# Same assay, conditions: preincubated with 100 IU/mL porcine liver esterase 2 hours at 37° C., 100 μM ADP, read-out: Platelet Aggregation Assay IC50 (with esterase)
row,SMILES,IC50 [µM]
1,"COC(=O)[C@H](CNC(=O)CC1CC(c2ccc(C(=N)N)cc2)=NO1)NS(=O)(=O)c1cccc(C)c1 (stereo partly drawn) [Example 473B, Methyl N^2-3-methylphenylsulfonyl-N^3-[3-(4-amidinophenyl)-5S-ylacetyl]-S-2,3-diaminopropionate trifluoroacetic acid salt]",< 10
